Measurements reported in patent US8784633B2, “Automatic positioning and sensing microelectrode arrays” (priority 2007, dated 2014).

System: cortical neurons
Test: Multi-site recording of extracellular spontaneous electrophysiological activity of cortical neuronal networks on APSMEA
Assay type: cell-based, rat
Protocol: FIG. 3 is a process flow diagram 300 of a process for controlling movement of target cells into a predetermined location using negative DEP forces. At 302, target cells (e.g., neuronal cells) in suspension are introduced onto a APSMEA device 100. The target cells are prepared according to institutional guidelines for care and use of animals. For example, to obtain neuronal cells, cortical neurons are excised from 18-day rat embryos and dissociated by trituration after digestion with papain (20 U/ml). The neurons are then resuspended in Neurobasal medium with B27 supplement and 500 μM glutamine. The medium initially added to new cultures are also supplemented with 25 μM glutamate and 25 μM β-mercaptoethanol. With four different concentrations, i.e., 1×10^5 cells/ml, 2×10^5 cells/ml, 5×10^5 cells/ml and 1×10^6 cells/ml, neurons are seeded on the APSMEA device 100 after coating with poly-L-lysine (50 μg/ml) and laminin (10 μg/ml).
FIG. 6a-c represent results of multi-site recordings of extracellular spontaneous electrophysiological activities from cortical neuronal networks (14 DIV) for control (no DEP forces applied) and manipulated (with DEP forces applied) cells at the seeding cell concentration of 5×10^5 cells/ml. Multi-site electrophysiological recordings in this and other implementations can be performed with the APSMEA device connected with a commercial multi-channel amplifier and filtering stage (Cyberkinetics, Salt Lake City, Utah). Measurements are carried out in 14 days old cortical cultures at 37° C., allowing the signals from the recording electrodes 122 amplified (×5000), band-pass filtered (250-7500 Hz), and sampled at 30 kHz/channel on 25 channels simultaneously. Using ±3 times of the standard deviation of the noise level as the threshold value for each channel, electrophysiological activities are detected on-line or off-line. NMDA (5 μM) and APV (5 μM) are also applied in the culture medium, and their related electrophysiological activities before and after any drug (e.g., chemical compounds) administration are both recorded for 10 min. […]

[1] = 5 μM in culture medium, cortical neurons 14 DIV, 10 min recording, n=4 separate APSMEAs

Compound: N[C@@H](CCCP(=O)(O)O)C(=O)O [APV]
- electrical activity level (sum of spikes over all active sites) compared with no drug added control [1]: 7.8±7.5 % of control

Compound: CN[C@H](CC(=O)O)C(=O)O [NMDA]
- induced activity level relative to controls [1]: increase three times more than that of controls

Compound: TTX
- effect on recorded extracellular action potentials (electrical activities): inhibited
